Data taken from patent publication US20240261250A1 (priority 2020, published 2024).

Tests used:
SH-SY5Y cells [1] = type: cell-based
SH-SY5Y cells [2] = type: cell-based; remark: listed apart in the source
SH-SY5Y cells [3] = tested on: SH-SY5Y cells
SH-SY5Y cells [4] = type: cell-based; remark: listed apart in the source

Compound: CCN(CC)CCO[C@H]1CC[C@@]2(C)C(=CC[C@@H]3[C@@H]2CC[C@]2(C)C(=O)CC[C@@H]32)C1 [U18666A]
- Filipin staining fluorescence intensity (SH-SY5Y cells [1]): enhanced

Compound: COc1ncc(-c2ccc3nc(N)n(-c4ccc(N5CCOCC5)cc4)c3c2)cc1S(=O)(=O)Nc1ccccc1F [A1, 5-(2-amino-1-(4-(4-morpholinyl)phenyl)-1H-benzimidazol-6-yl)-N-(2-fluorophenyl)-2-methoxy-3-pyridinesulfonamide]
- Lyso-tracker labeled positive cells (SH-SY5Y cells [2]): fewer Lyso-tracker labeled positive cells

Compound: CO/C1=C\C(C)=C\[C@@H](C)[C@@H](O)[C@@H](C)C/C(C)=C/C=C/[C@H](OC)[C@@H]([C@@H](C)[C@@H](O)[C@H](C)[C@@]2(O)C[C@@H](O)[C@H](C)[C@@H](C(C)C)O2)OC1=O [Baf-A1, Bafilomycin A1]
- cell viability (SH-SY5Y cells [3]): not significantly different
- effect on the protection by PAO (cell viability) (SH-SY5Y cells [3]): decreased the protection effect of PAO

Compound: O[C@H]1[C@H](O)[C@@H](O)[C@@H]2O[C@@H]2[C@@H]1O (racemic) [CBE, Conduritol B Epoxide]
- concentration of GlcCer of various side chains in cells (SH-SY5Y cells [4]): much higher
- immunofluorescence intensity of Lyso-tracker (SH-SY5Y cells [2]): increased significantly
- number of Lyso-tracker labeled positive cells (SH-SY5Y cells [2]): significantly increased
- cell viability (SH-SY5Y cells [3]): significantly inhibited
